# Laboratory results taken from US12723063B2, “GIPR-agonist compounds” (Eli Lilly and Company, priority 2019, dated 2026).
# *1 amine or outer side, *2 acyl side, *3 side chain or, on linkers, in order; H or OH if unused. Where a SMILES comes first, the peptide text is derived from it. Side-chain parts run from the residue outwards. [ ]: non-standard residue; d: D form. The star is where a group is joined. C20 diacid = O=C(O)CCCCCCCCCCCCCCCCCCC(=O)*; C18 diacid = O=C(O)CCCCCCCCCCCCCCCCC(=O)*; αMePhe(2-F) = C[C@](N)(Cc1ccccc1F)C(=O)O; γGlu = O=C(O)[C@H](CCC(=O)[*:2])N[*:1]; αMeF = C[C@](N)(Cc1ccccc1)C(=O)O; 4Pal = N[C@@H](Cc1ccncc1)C(=O)O; αMeL = CC(C)C[C@](C)(N)C(=O)O; AEEA = NCCOCCOCC(=O)O; Aib = CC(C)(N)C(=O)O
# Key:
# Test in all cases: cAMP functional assay (HTRF) in HEK293 cells in presence of 0.1% casein
# Assay type in all cases: cell-based
# [1] = biological target: T1, human GLP-1 receptor (GLP-1R) (Homo sapiens, UniProt P43220); conditions: HEK293 cells expressing human GLP-1R, geometric mean, read-out: hGLP1R cAMP Rel EC50 nM (SEM, n)
# T1 construct: expressed in transfected cells; host or cells: HEK293
# T1 sequence (P43220 24-463): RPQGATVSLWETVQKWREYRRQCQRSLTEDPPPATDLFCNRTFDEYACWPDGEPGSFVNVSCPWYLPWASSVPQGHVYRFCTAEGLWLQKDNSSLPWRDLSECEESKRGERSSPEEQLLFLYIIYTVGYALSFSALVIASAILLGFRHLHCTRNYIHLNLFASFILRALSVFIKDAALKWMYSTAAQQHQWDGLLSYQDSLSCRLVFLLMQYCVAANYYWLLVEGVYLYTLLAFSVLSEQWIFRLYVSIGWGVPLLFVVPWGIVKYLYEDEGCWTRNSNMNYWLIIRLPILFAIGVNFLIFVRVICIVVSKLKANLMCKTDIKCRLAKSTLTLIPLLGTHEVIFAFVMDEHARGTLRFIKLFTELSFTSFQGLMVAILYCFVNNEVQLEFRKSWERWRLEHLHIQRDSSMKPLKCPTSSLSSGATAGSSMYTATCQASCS
# [2] = biological target: T2, human glucagon receptor (GcgR) (Homo sapiens, UniProt P47871); conditions: HEK293 cells expressing human GcgR, geometric mean, read-out: hGcgR cAMP Rel EC50 nM (SEM, n)
# T2 construct: expressed in transfected cells; host or cells: HEK293
# T2 sequence (P47871 26-477): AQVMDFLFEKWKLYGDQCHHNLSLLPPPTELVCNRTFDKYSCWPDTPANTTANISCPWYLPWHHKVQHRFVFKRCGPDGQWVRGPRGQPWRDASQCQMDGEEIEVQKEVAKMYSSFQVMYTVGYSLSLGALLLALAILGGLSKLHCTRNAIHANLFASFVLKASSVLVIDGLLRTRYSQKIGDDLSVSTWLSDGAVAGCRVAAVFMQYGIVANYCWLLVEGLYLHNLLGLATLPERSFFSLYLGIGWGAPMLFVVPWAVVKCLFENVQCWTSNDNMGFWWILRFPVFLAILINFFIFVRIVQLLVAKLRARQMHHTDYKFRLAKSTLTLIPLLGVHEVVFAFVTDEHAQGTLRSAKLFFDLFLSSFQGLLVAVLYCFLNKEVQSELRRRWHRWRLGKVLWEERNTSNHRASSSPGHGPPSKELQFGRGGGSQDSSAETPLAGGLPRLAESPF
# [3] = biological target: T3, human glucose-dependent insulinotropic peptide receptor (GIPR) (Homo sapiens, UniProt P48546); conditions: HEK293 cells expressing human GIPR, geometric mean, read-out: hGIPR cAMP Rel EC50 nM (SEM, n)
# T3 construct: expressed in transfected cells; host or cells: HEK293
# T3 sequence (P48546 22-466): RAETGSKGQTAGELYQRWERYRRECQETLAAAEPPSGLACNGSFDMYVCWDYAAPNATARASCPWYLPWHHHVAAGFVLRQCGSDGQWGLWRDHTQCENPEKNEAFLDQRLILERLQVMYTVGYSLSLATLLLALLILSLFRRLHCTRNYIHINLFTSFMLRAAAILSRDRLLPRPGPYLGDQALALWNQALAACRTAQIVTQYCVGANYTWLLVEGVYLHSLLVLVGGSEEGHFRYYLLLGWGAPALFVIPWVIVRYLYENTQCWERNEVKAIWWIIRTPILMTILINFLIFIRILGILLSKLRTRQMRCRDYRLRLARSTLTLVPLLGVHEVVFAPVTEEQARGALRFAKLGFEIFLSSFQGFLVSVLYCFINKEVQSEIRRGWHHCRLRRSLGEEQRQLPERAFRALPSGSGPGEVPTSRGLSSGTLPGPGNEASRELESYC
Compound,EC50 [1] [nM],EC50 [2] [nM],EC50 [3] [nM]
CC[C@H](C)[C@H](NC(=O)[C@H](CO)NC(=O)[C@H](Cc1ccc(O)cc1)NC(=O)[C@H](CC(=O)O)NC(=O)[C@H](CO)NC(=O)[C@@H](NC(=O)[C@H](CC(C)C)NC(=O)[C@@H](NC(=O)CNC(=O)[C@H](CCC(=O)O)NC(=O)[C@@H](C)NC(=O)[C@@H](N)Cc1ccc(O)cc1)[C@@H](C)O)[C@@H](C)CC)C(=O)N[C@@H](CC(C)C)C(=O)N[C@@H](CC(C)C)C(=O)N[C@@H](CC(=O)O)C(=O)N[C@@H](CCCCN)C(=O)N[C@@H](CCCCNC(=O)COCCOCCNC(=O)COCCOCCNC(=O)CC[C@H](NC(=O)CCCCCCCCCCCCCCCCC(=O)O)C(=O)O)C(=O)N[C@@H](C)C(=O)N[C@@H](CCC(N)=O)C(=O)NC(C)(C)C(=O)N[C@@H](CC(=O)O)C(=O)N[C@@H](Cc1ccccc1)C(=O)N[C@H](C(=O)N[C@@H](CC(N)=O)C(=O)N[C@@H](Cc1c[nH]c2ccccc12)C(=O)N[C@@H](CC(C)C)C(=O)N[C@@H](CC(C)C)C(=O)N[C@@H](C)C(=O)N[C@@H](CCC(N)=O)C(=O)NCC(=O)N1CCC[C@H]1C(=O)N[C@@H](CO)C(=O)N[C@@H](CO)C(=O)NCC(=O)N[C@@H](C)C(=O)N1CCC[C@H]1C(=O)N1CCC[C@H]1C(=O)N1CCC[C@H]1C(=O)N[C@@H](CO)C(N)=O)C(C)C [Example 32] (H-Y[dA]EGTLISDYSILLDKK([AEEA-AEEA-γGlu-C18 diacid])AQ[Aib]DFVNWLLAQGPSSGAPPPS-NH2),> 5000,> 5000,0.00469
CC[C@H](C)[C@H](NC(=O)[C@H](CO)NC(=O)[C@H](Cc1ccc(O)cc1)NC(=O)[C@H](CC(=O)O)NC(=O)[C@H](CO)NC(=O)[C@@H](NC(=O)[C@](C)(Cc1ccccc1F)NC(=O)[C@@H](NC(=O)CNC(=O)[C@H](CCC(=O)O)NC(=O)C(C)(C)NC(=O)[C@@H](N)Cc1ccc(O)cc1)[C@@H](C)O)[C@@H](C)CC)C(=O)N[C@@](C)(CC(C)C)C(=O)N[C@@H](CC(C)C)C(=O)N[C@@H](CC(=O)O)C(=O)N[C@@H](CCCCN)C(=O)N[C@@H](CCCCNC(=O)COCCOCCNC(=O)COCCOCCNC(=O)CC[C@H](NC(=O)CCCCCCCCCCCCCCCCCCC(=O)O)C(=O)O)C(=O)N[C@@H](Cc1c[nH]cn1)C(=O)N[C@@H](CCC(N)=O)C(=O)NC(C)(C)C(=O)N[C@@H](CC(=O)O)C(=O)N[C@@H](Cc1ccccc1)C(=O)N[C@H](C(=O)N[C@@H](CCC(=O)O)C(=O)N[C@@H](Cc1ccncc1)C(=O)N[C@@H](CC(C)C)C(=O)N[C@@H](CC(C)C)C(=O)N[C@@H](C)C(=O)NCC(=O)NCC(=O)N1CCC[C@H]1C(=O)N[C@@H](CO)C(=O)N[C@@H](CO)C(=O)NCC(=O)N[C@@H](C)C(=O)N1CCC[C@H]1C(=O)N1CCC[C@H]1C(=O)N1CCC[C@H]1C(=O)N[C@@H](CO)C(N)=O)C(C)C [Example 51] (H-Y[Aib]EGT[αMePhe(2-F)]ISDYSI[αMeL]LDKK([AEEA-AEEA-γGlu-C20 diacid])HQ[Aib]DFVE[4Pal]LLAGGPSSGAPPPS-NH2),24.7,308,0.0166
CC[C@H](C)[C@H](NC(=O)[C@H](CO)NC(=O)[C@H](Cc1ccc(O)cc1)NC(=O)[C@H](CC(=O)O)NC(=O)[C@H](CO)NC(=O)[C@@H](NC(=O)[C@](C)(Cc1ccccc1)NC(=O)[C@@H](NC(=O)CNC(=O)[C@H](CCC(=O)O)NC(=O)C(C)(C)NC(=O)[C@@H](N)Cc1ccc(O)cc1)[C@@H](C)O)[C@@H](C)CC)C(=O)N[C@@](C)(CC(C)C)C(=O)N[C@@H](CC(C)C)C(=O)N[C@@H](CC(=O)O)C(=O)N[C@@H](CCCCN)C(=O)N[C@@H](CCCCNC(=O)COCCOCCNC(=O)COCCOCCNC(=O)CC[C@H](NC(=O)CCCCCCCCCCCCCCCCCCC(=O)O)C(=O)O)C(=O)N[C@@H](Cc1c[nH]cn1)C(=O)N[C@@H](CCC(N)=O)C(=O)NC(C)(C)C(=O)N[C@@H](CCC(=O)O)C(=O)N[C@@H](Cc1ccccc1)C(=O)N[C@H](C(=O)N[C@@H](CCC(=O)O)C(=O)N[C@@H](Cc1ccncc1)C(=O)N[C@@H](CC(C)C)C(=O)N[C@@H](CC(C)C)C(=O)N[C@@H](C)C(=O)N[C@@H](CCC(N)=O)C(=O)NCC(=O)N1CCC[C@H]1C(=O)N[C@@H](CO)C(=O)N[C@@H](CO)C(=O)NCC(=O)N[C@@H](C)C(=O)N1CCC[C@H]1C(=O)N1CCC[C@H]1C(=O)N1CCC[C@H]1C(=O)N[C@@H](CO)C(N)=O)C(C)C [Example 60] (H-Y[Aib]EGT[αMeF]ISDYSI[αMeL]LDKK([AEEA-AEEA-γGlu-C20 diacid])HQ[Aib]EFVE[4Pal]LLAQGPSSGAPPPS-NH2),71,> 5000,0.0369
CC[C@H](C)[C@H](NC(=O)[C@H](Cc1ccccc1)NC(=O)[C@@H](NC(=O)CNC(=O)[C@H](CCC(=O)O)NC(=O)C(C)(C)NC(=O)[C@@H](N)Cc1ccc(O)cc1)[C@@H](C)O)C(=O)N[C@@H](CO)C(=O)N[C@@H](CC(=O)O)C(=O)N[C@@H](Cc1ccc(O)cc1)C(=O)N[C@@H](CO)C(=O)N[C@H](C(=O)N[C@@](C)(CC(C)C)C(=O)N[C@@H](CC(C)C)C(=O)N[C@@H](CC(=O)O)C(=O)N[C@@H](CCCCN)C(=O)N[C@@H](CCCCNC(=O)COCCOCCNC(=O)COCCOCCNC(=O)CC[C@H](NC(=O)CCCCCCCCCCCCCCCCCCC(=O)O)C(=O)O)C(=O)N[C@@H](Cc1c[nH]cn1)C(=O)N[C@@H](CCC(N)=O)C(=O)NC(C)(C)C(=O)N[C@@H](CC(=O)O)C(=O)N[C@@H](Cc1ccccc1)C(=O)N[C@H](C(=O)N[C@@H](CCC(=O)O)C(=O)N[C@@H](Cc1ccc(O)cc1)C(=O)N[C@@H](CC(C)C)C(=O)N[C@@H](CC(C)C)C(=O)N[C@@H](CCC(=O)O)C(=O)N[C@H](C(=O)NCC(=O)N1CCC[C@H]1C(=O)N[C@@H](CO)C(=O)N[C@@H](CO)C(=O)NCC(=O)N[C@@H](C)C(=O)N1CCC[C@H]1C(=O)N1CCC[C@H]1C(=O)N1CCC[C@H]1C(=O)N[C@@H](CO)C(N)=O)[C@@H](C)O)C(C)C)[C@@H](C)CC [Example 66] (H-Y[Aib]EGTFISDYSI[αMeL]LDKK([AEEA-AEEA-γGlu-C20 diacid])HQ[Aib]DFVEYLLETGPSSGAPPPS-NH2),> 5000,> 5000,0.0786
CC[C@H](C)[C@H](NC(=O)[C@H](CC(C)C)NC(=O)[C@@H](NC(=O)CNC(=O)[C@H](CCC(=O)O)NC(=O)C(C)(C)NC(=O)[C@@H](N)Cc1ccc(O)cc1)[C@@H](C)O)C(=O)N[C@@H](CO)C(=O)N[C@@H](CC(=O)O)C(=O)N[C@@H](Cc1ccc(O)cc1)C(=O)N[C@@H](CO)C(=O)N[C@H](C(=O)N[C@@](C)(CC(C)C)C(=O)N[C@@H](CC(C)C)C(=O)N[C@@H](CC(=O)O)C(=O)N[C@@H](CCCCN)C(=O)N[C@@H](CCCCNC(=O)COCCOCCNC(=O)COCCOCCNC(=O)CC[C@H](NC(=O)CCCCCCCCCCCCCCCCCCC(=O)O)C(=O)O)C(=O)N[C@@H](Cc1c[nH]cn1)C(=O)N[C@@H](CCC(N)=O)C(=O)NC(C)(C)C(=O)N[C@@H](CCC(=O)O)C(=O)N[C@@H](Cc1ccccc1)C(=O)N[C@H](C(=O)N[C@@H](CCC(=O)O)C(=O)N[C@@H](Cc1ccc(O)cc1)C(=O)N[C@@H](CC(C)C)C(=O)N[C@@H](CC(C)C)C(=O)N[C@@H](CCC(=O)O)C(=O)N[C@H](C(=O)NCC(=O)N1CCC[C@H]1C(=O)N[C@@H](CO)C(=O)N[C@@H](CO)C(=O)NCC(=O)N[C@@H](C)C(=O)N1CCC[C@H]1C(=O)N1CCC[C@H]1C(=O)N1CCC[C@H]1C(=O)N[C@@H](CO)C(N)=O)[C@@H](C)O)C(C)C)[C@@H](C)CC [Example 72] (H-Y[Aib]EGTLISDYSI[αMeL]LDKK([AEEA-AEEA-γGlu-C20 diacid])HQ[Aib]EFVEYLLETGPSSGAPPPS-NH2),> 5000,> 5000,0.0182
CC[C@H](C)[C@H](NC(=O)[C@H](Cc1ccccc1)NC(=O)[C@@H](NC(=O)CNC(=O)[C@H](CCC(=O)O)NC(=O)C(C)(C)NC(=O)[C@@H](N)Cc1ccc(O)cc1)[C@@H](C)O)C(=O)N[C@@H](CO)C(=O)N[C@@H](CC(=O)O)C(=O)N[C@@H](Cc1ccc(O)cc1)C(=O)N[C@@H](CO)C(=O)N[C@H](C(=O)N[C@@](C)(CC(C)C)C(=O)N[C@@H](CC(C)C)C(=O)N[C@@H](CC(=O)O)C(=O)N[C@@H](CCCCN)C(=O)N[C@@H](CCCCNC(=O)COCCOCCNC(=O)COCCOCCNC(=O)CC[C@H](NC(=O)CCCCCCCCCCCCCCCCCCC(=O)O)C(=O)O)C(=O)N[C@@H](Cc1c[nH]cn1)C(=O)N[C@@H](CCC(N)=O)C(=O)NC(C)(C)C(=O)N[C@@H](CCC(=O)O)C(=O)N[C@@H](Cc1ccccc1)C(=O)N[C@H](C(=O)N[C@@H](CCC(=O)O)C(=O)N[C@@H](Cc1ccncc1)C(=O)N[C@@H](CC(C)C)C(=O)N[C@@H](CC(C)C)C(=O)N[C@@H](C)C(=O)N[C@H](C(=O)NCC(=O)N1CCC[C@H]1C(=O)N[C@@H](CO)C(=O)N[C@@H](CO)C(=O)NCC(=O)N[C@@H](C)C(=O)N1CCC[C@H]1C(=O)N1CCC[C@H]1C(=O)N1CCC[C@H]1C(=O)N[C@@H](CO)C(N)=O)[C@@H](C)O)C(C)C)[C@@H](C)CC [Example 58] (H-Y[Aib]EGTFISDYSI[αMeL]LDKK([AEEA-AEEA-γGlu-C20 diacid])HQ[Aib]EFVE[4Pal]LLATGPSSGAPPPS-NH2),> 5000,> 5000,0.0183
